{"source": "patent US20060269583A1", "about": "“Process and composition for treating wood” (priority 2005, published 2006)", "origin": "cited, not measured here", "details": "in about 10 years under a given set of field conditions", "data": [{"substance": "copper amine carbonate complex", "values": [{"measurement": "copper removed by leaching", "result": "≤ 80", "unit": "%"}]}]}
